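Step 1: Grow cells in 96-well plates. Step 2: Expose to compound for 48 hours at 5 concentrations. Step 3: Interpolate endpoints linearly; if unreached, use highest concentration. At the TGI there is no net growth.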
Experiments:
Experiment in all cases: NCI tumour cell line growth inhibition, 48 h
[1] = tested on: 786-0 renal
[2] = tested on: A498 renal
[3] = tested on: A549 NSCLC
[4] = tested on: ACHN renal
[5] = tested on: BT-549 breast
[6] = tested on: CAKI-1 renal
[7] = tested on: CCRF-CEM leukemia
[8] = tested on: COLO 205 colon
[9] = tested on: DU-145 prostate
[10] = tested on: EKVX NSCLC
[11] = tested on: HCC-2998 colon
[12] = tested on: HCT-116 colon
[13] = tested on: HCT-15 colon
[14] = tested on: HL-60(TB) leukemia
[15] = tested on: HOP-62 NSCLC
[16] = tested on: HOP-92 NSCLC
[17] = tested on: HS 578T breast
[18] = tested on: HT29 colon
[19] = tested on: IGROV1 ovarian
[20] = tested on: K-562 leukemia
[21] = tested on: KM12 colon
[22] = tested on: LOX IMVI melanoma
[23] = tested on: M14 melanoma
[24] = tested on: MALME-3M melanoma
[25] = tested on: MCF7 breast
[26] = tested on: MDA-MB-231 breast
[27] = tested on: MDA-MB-435
[28] = tested on: MDA-N
[29] = tested on: NCI-H226 lung
[30] = tested on: NCI-H23 lung
[31] = tested on: NCI-H460 lung
[32] = tested on: NCI-H522 lung
[33] = tested on: NCI/ADR-RES ovarian
[34] = tested on: OVCAR-4 ovarian
[35] = tested on: OVCAR-5 ovarian
[36] = tested on: OVCAR-8 ovarian
[37] = tested on: PC-3 prostate
[38] = tested on: RPMI-8226 leukemia
[39] = tested on: RXF 393 renal
[40] = tested on: SF-268 CNS
[41] = tested on: SF-295 CNS
[42] = tested on: SK-MEL-2 melanoma
[43] = tested on: SK-MEL-28 melanoma
[44] = tested on: SK-MEL-5 melanoma
[45] = tested on: SK-OV-3 ovarian
[46] = tested on: SN12C renal
[47] = tested on: SNB-19 CNS
[48] = tested on: SNB-75 CNS
[49] = tested on: SW-620 colon
[50] = tested on: T-47D breast
[51] = tested on: TK-10 renal
[52] = tested on: U251 CNS
[53] = tested on: UACC-257 melanoma
[54] = tested on: UACC-62 melanoma
[55] = tested on: UO-31 renal
[56] = tested on: MOLT-4 leukemia
[57] = tested on: OVCAR-3 ovarian
[58] = tested on: SF-539 CNS
[59] = tested on: SR leukemia

## O=C1Nc2cc(Cl)ccc2C(=O)N2CCC[C@@H]12
[1]
  TGI: > 100 µM
[2]
  TGI: > 100 µM
[3]
  TGI: > 100 µM
[4]
  TGI: > 100 µM
[5]
  TGI: > 100 µM
[6]
  TGI: > 100 µM
[7]
  TGI: > 100 µM
[8]
  TGI: > 100 µM
[9]
  TGI: > 100 µM
[10]
  TGI: > 100 µM
[11]
  TGI: > 100 µM
[12]
  TGI: > 100 µM
[13]
  TGI: > 100 µM
[14]
  TGI: > 100 µM
[15]
  TGI: > 100 µM
[16]
  TGI: > 100 µM
[17]
  TGI: > 100 µM
[18]
  TGI: > 100 µM
[19]
  TGI: > 100 µM
[20]
  TGI: > 100 µM
[21]
  TGI: > 100 µM
[22]
  TGI: > 100 µM
[23]
  TGI: > 100 µM
[24]
  TGI: > 100 µM
[25]
  TGI: > 100 µM
[26]
  TGI: > 100 µM
[27]
  TGI: > 100 µM
[28]
  TGI: > 100 µM
[29]
  TGI: 98.2 µM
[30]
  TGI: > 100 µM
[31]
  TGI: > 100 µM
[32]
  TGI: > 100 µM
[33]
  TGI: > 100 µM
[34]
  TGI: > 100 µM
[35]
  TGI: > 100 µM
[36]
  TGI: > 100 µM
[37]
  TGI: > 100 µM
[38]
  TGI: > 100 µM
[39]
  TGI: > 100 µM
[40]
  TGI: > 100 µM
[41]
  TGI: > 100 µM
[42]
  TGI: > 100 µM
[43]
  TGI: > 100 µM
[44]
  TGI: > 100 µM
[45]
  TGI: > 100 µM
[46]
  TGI: > 100 µM
[47]
  TGI: > 100 µM
[48]
  TGI: > 100 µM
[49]
  TGI: > 100 µM
[50]
  TGI: > 100 µM
[51]
  TGI: > 100 µM
[52]
  TGI: > 100 µM
[53]
  TGI: > 100 µM
[54]
  TGI: > 100 µM
[55]
  TGI: > 100 µM

## CCOC(=O)C1C(=O)C=C(c2cc(C)ccc2O)CC1c1cccc(Cl)c1 (stereo not given)
[1]
  TGI: > 100 µM
[3]
  TGI: 49.1 µM
[4]
  TGI: 51.7 µM
[5]
  TGI: > 100 µM
[6]
  TGI: > 100 µM
[7]
  TGI: 94.7 µM
[8]
  TGI: 34.9 µM
[9]
  TGI: > 100 µM
[10]
  TGI: > 100 µM
[11]
  TGI: 69.8 µM
[12]
  TGI: > 100 µM
[13]
  TGI: 13.2 µM
[14]
  TGI: 63.5 µM
[15]
  TGI: > 100 µM
[16]
  TGI: 61.5 µM
[17]
  TGI: 58 µM
[18]
  TGI: 86.7 µM
[19]
  TGI: 51.1 µM
[20]
  TGI: 53.8 µM
[21]
  TGI: 69 µM
[22]
  TGI: 57.4 µM
[23]
  TGI: > 100 µM
[24]
  TGI: 75.6 µM
[25]
  TGI: 74.5 µM
[26]
  TGI: 83.4 µM
[27]
  TGI: 8.23 µM
[28]
  TGI: 29.8 µM
[56]
  TGI: > 100 µM
[29]
  TGI: 73.5 µM
[30]
  TGI: 88.6 µM
[31]
  TGI: > 100 µM
[32]
  TGI: 37 µM
[33]
  TGI: 54.2 µM
[57]
  TGI: > 100 µM
[34]
  TGI: 56.2 µM
[35]
  TGI: > 100 µM
[36]
  TGI: > 100 µM
[37]
  TGI: > 100 µM
[38]
  TGI: 48.3 µM
[39]
  TGI: 54.5 µM
[40]
  TGI: 97.3 µM
[41]
  TGI: 76.3 µM
[58]
  TGI: 47 µM
[42]
  TGI: 46.7 µM
[44]
  TGI: 50.5 µM
[45]
  TGI: 79.7 µM
[46]
  TGI: 95.9 µM
[47]
  TGI: 44.2 µM
[59]
  TGI: 34.9 µM
[49]
  TGI: > 100 µM
[50]
  TGI: > 100 µM
[51]
  TGI: 57.7 µM
[52]
  TGI: 40.7 µM
[54]
  TGI: 47 µM
[55]
  TGI: 65.9 µM

Source: PubChem BioAssay (NCI)
